Reference: patent US10639345B2, “Compositions for preserving photoreceptor cells, retinal pigment epithelial cells, or visual function” (Massachusetts Eye and Ear Infirmary, priority 2010, dated 2020)

Legend:
photoreceptors [1] = assay: TUNEL-positive photoreceptors in ONL after experimental retinal detachment; assay type: in vivo, rat
photoreceptors [2] = assay: Normalized ONL thickness ratio after experimental retinal detachment; assay type: in vivo, rat; details: subretinal Z-VAD 300 μM and/or Nec-1 400 μM
Experimental: Photoreceptor death was also assessed by TUNEL analysis at three days after retinal detachment in retina treated with either vehicle, Nec-1, Z-VAD or Nec-1+Z-VAD. […] Nine sections for each eye specimen were randomly selected, and the central area of detached retina and the mid-peripheral region of attached retina were photographed. The ONL thickness ratio was measured at ten points in each section by masked observers. […] (GCL: ganglion cell layer, INL: inner nuclear layer. *, P<0.05. Scale bar, 100 μm). […]
TNF-α protein contents in rat retina were determined using ELISA Kit for rat TNF-α (Invitrogen, Carlsbad, Calif.). Goat anti-mouse/rat TNF-α blocking antibody was purchased from R&D Systems (Minneapolis, Minn.). The rat eyes were subretinally injected with 1% of sodium hyaluronate containing 0.1 mg/ml of anti-TNF-α antibody or control antibody.

photoreceptors [3] = assay: TEM quantification of apoptotic and necrotic photoreceptor death after retinal detachment; assay type: in vivo; details: day three after retinal detachment, ONL
Experimental: The morphology of photoreceptors after retinal detachment was examined by transmission electron microscopy (TEM) and propidium iodide (PI) staining and the effect of treatment with Z-VAD and/or a Nec-1 compound of Formula I-C was analyzed.
TEM was performed as previously described (Hisatomi T et al. (2008). J. CLIN. INVEST. 118:2025-2038). […] Over 200 photoreceptors each eye were photographed and subjected to quantification of cell death modes in a masked fashion. Photoreceptors showing cellular shrinkage and nuclear condensation were defined as apoptotic cells, while photoreceptors associated with cellular and organelle swelling and discontinuities in nuclear and plasma membrane were defined as necrotic cells. The presence of electron-dense granular materials were reported to occur subsequent to both apoptotic and necrotic cell death and cells with these findings were labeled simply as end-stage cell death/unclassified (Hisatomi T et al. (2003) AM. J. PATHOL. 162:1869-1879; Erickson P A et al. (1983) INVEST. OPHTHALMOL. VIS. SCI. 24:927-942).
On day three after retinal detachment, photoreceptor death caused by apoptosis was almost twice that caused by necrosis in vehicle-treated retina (% apoptotic cells: 21.7±1.3%, necrotic cells: 13.3±1.0%, unclassified: 4.4±1.4%; FIGS. 7A and 7E).

photoreceptors [4] = assay: TUNEL-positive cells after retinal detachment in RIP-3−/− mice; assay type: in vivo; details: three days after retinal detachment
Experimental: The role of RIP-3 in RIP-mediated programmed necrosis in photoreceptor loss after retinal detachment was investigated in RIP-3 knockout (RIP-3−/−) mice. TUNEL assays were used to measure the amount of apoptotic and necrotic cell death (Grasl-Kraupp et al., HEPTALOGY (1995) 21(5):1465-8). TUNEL and quantification of TUNEL positive cells in ONL were performed as described above by using the ApopTag Fluorescein In Situ Apoptosis Detection Kit (Millipore, Billerica, Mass.).

NF-κB p65 = assay: Western blot for phospho-NF-κB p65 after retinal detachment; assay type: in vivo
Text: FIG. 16 is a photograph of an immunoblot from a Western blot analysis for phospho-NFκB p65 in control retina without a retinal detachment and in retina three days after retinal detachment with treatment of vehicle, Z-VAD or Z-VAD+Nec-1 (lane-loading differences were normalized by the level of β-tubulin).
The vitreous and neural retina combined was collected on day 3 after retinal detachment. Samples were run on 4-12% SDS-polyacrylamide gel electrophoresis and transferred onto PVDF membrane. After blocking with 3% nonfat dried milk, the membrane was reacted with RIP-3 (1:10000; Sigma, Saint Louis, […].), RIP-1 (1:2000; BD Biosciences), phosphoserine (1:2000; Enzo, Plymouth Meeting, Pa.) or anti-phosphorylated NF-κB p65 (1:1000; Cell signaling) antibody. Membranes were then developed with enhanced chemiluminescence. Lane-loading differences were normalized by β-tubulin (1:1000; Cell Signaling).
For Western Blot analysis, the vitreous and neural retina combined, were collected at three days after retinal detachment. Samples were run on 4-12% SDS-polyacrylamide gel electrophoresis and transferred onto PVDF membrane. After blocking with 3% nonfat dried milk, the membrane was reacted with anti-light chain 3 antibody (1:1000; Cell signaling), anti-phosphorylated ribosomal protein S6 antibody (1:1000; Cell Signaling) or anti-phosphorylated NF-κB p65 antibody (1:1000; Cell Signaling). […]

photoreceptors [5] = assay: Poly I:C-induced dry AMD model, TUNEL-positive cells in ONL; assay type: in vivo, mice; details: compared with vehicle
Text: (§1) In this example, the mechanism of photoreceptor cell death in dry AMD was investigated using a polyinosinic:polycytidylic acid (Poly I:C)-induced dry AMD model (Yang et al. (2009) NEJM 359(14):1456-63). Poly I:C is a synthetic double-stranded RNA (dsRNA) analog that activates toll-like receptor 3 (TLR3) signaling (FIG. 20A). Furthermore, dsRNA are known to exist in the drusen of human AMD patients. As depicted in FIG. 20A, activation of the TLR3 signaling results in activation of RIP-1 kinase pathway. […] In the experiments described herein, 2-3 μl of Poly I:C (1 mg/ml) was injected into the subretinal space of the eye (e.g., approximately 2-3 μg of Poly I:C was administered to the eye) to induce AMD.
The thickness of the ONL was determined by the National Institutes of Health ImageJ software. […] Specifically, the number of TUNEL-positive cells in the RIP-3−/− mice treated with poly I:C was at least three fold less than control mice consistent with RIP-3 playing a role in mediating programmed necrosis in AMD (FIG. 22B).
(§2) To determine the effect of Nec-1 and a pan-caspase inhibitor in the treatment of AMD, TUNEL assay was performed to assess photoreceptor cell death in the poly I:C induced AMD model. […] The thickness of ONL was also measured.

photoreceptors [6] = assay: Poly I:C-induced dry AMD model, ONL thickness; assay type: in vivo, mice
Text: as §1
The thickness of the outer nuclear layer (ONL) was also determined in WT or RIP-3−/− mice at 14 days following treatment with poly I:C. Sections were randomly selected from either WT or RIP-3−/− mice following poly I:C treatment and the retina was photographed. The ONL thickness was measured in each section by masked observers.
as §2

primary RPE cells = assay: Viability of primary RPE cells treated with poly I:C (Cell Counting Kit-8); assay type: cell-based, mice; details: WT primary RPE cells, 5 μg/ml poly I:C for 48 hours
Experimental: As described in Example 11, primary RPE cells were extracted from the retina of mice and cultured in the presence of 5 μg/ml of poly I:C for 48 hours or with PBS. Cell viability was measured using Cell Counting Kit-8 (Dojindo Laboratories, Kumamoto, Japan). This assay is based on the cleavage of 2-(2-methoxy-4-nitrophenyl)-3-(4-nitrophenyl)-5-(2,4-disulfophenyl)-2H-tetrazolium, monosodium salt (WST-8) by the mitochondrial dehydrogenase enzyme to produce a formazan dye. After incubation with WST-8 for two hours at 37° C., absorbance was measured at 450 nm to determine cell viability.

photoreceptors [7] = assay: Normalized ONL thickness ratio after retinal detachment in RIP-3−/− mice; details: five days after retinal detachment, RIP-3−/− mice
Experimental: TUNEL assays were used to measure the amount of apoptotic and necrotic cell death (Grasl-Kraupp et al., HEPTALOGY (1995) 21(5):1465-8). TUNEL and quantification of TUNEL positive cells in ONL were performed as described above by using the ApopTag Fluorescein In Situ Apoptosis Detection Kit (Millipore, Billerica, Mass.). The ratio of the ONL thickness to the thickness of neuroretina in the central area of the detached retina was determined by National Institutes of Health ImageJ software and standardized by that in the attached retina. The data are expressed as normalized ONL thickness ratio [(ONL/neuroretina thickness in detached retina)/(ONL/neuroretina thickness in attached retina)].

SMILES	number of TUNEL-positive cells in the ONL (photoreceptors [1]; day three after retinal detachment, subretinal Z-VAD 300 μM and/or Nec-1 400 μM at detachment) [cells/mm^2]	normalized ONL thickness ratio (photoreceptors [2]; five days after retinal detachment)	normalized ONL thickness ratio (photoreceptors [2]; three days after retinal detachment)	% apoptotic cells (TEM) (photoreceptors [3]) [%]	% necrotic cells (TEM) (photoreceptors [3]) [%]	% unclassified (end-stage cell death, TEM) (photoreceptors [3]) [%]	number of TUNEL-positive cells (photoreceptors [4]) [cells/mm^2]	NF-κB p65 phosphorylation (NF-κB p65)	number of TUNEL-positive cells in ONL (photoreceptors [5])	ONL thickness (photoreceptors [6])	viability of RPE cells (primary RPE cells)	normalized ONL thickness ratio (photoreceptors [7])	neuroprotective effect / photoreceptor loss (TUNEL-positive photoreceptors and ONL thickness ratio) (photoreceptors [1]; day three after retinal detachment in rats, subretinal injection)
CN1C(=O)NC(Cc2c[nH]c3c(Cl)cccc23)C1=O (stereo not shown) [Nec-1]	1067.5±95.5	0.58±0.12	0.71±0.09	19.8±2.0	13.1±1.4	2.8±0.4	786.7±278.7	no effect	slight effect	minimal effect	did not protect RPE cells	0.761±0.049	–
C[C@H](NC(=O)C(=O)Nc1ccccc1C(C)(C)C)C(=O)N[C@@H](CC(=O)O)C(=O)COc1c(F)c(F)cc(F)c1F [IDN-6556, (3-{2-[(2-tert-butyl-phenylaminooxalyl)-amino]-propionylamino}-4-oxo-5-(2,3,5,6-tetrafluoro-phenoxy)-pentanoic acid)]	–	–	–	–	–	–	–	–	–	–	–	–	did not show any neuroprotective effect
